We go through 19 molecules from patent US12012467B2, “Small molecule DCN1 inhibitors and therapeutic methods using the same” (THE REGENTS OF THE UNIVERSITY OF MICHIGAN, priority 2017, dated 2024).

Square brackets hold non-standard residues; d marks the D form. Peptide text beside a SMILES is read from it. * marks the point of attachment. Ala(6-iPr-benzothiazol-2-yl) = CC(C)c1ccc2nc(C[C@H](N)C(=O)O)sc2c1; Cyclopropanecarbonyl = O=C(C1CC1)*; Butyryl = CCCC(=O)* Bounds are passed on as bounds.

The target in the first test is DCN1 (Homo sapiens (Human), UniProt Q96GG9). The test can be described thus: Competitive FP binding assay. The settings on record: bounds given in μM; read-out: Binding affinity to DCN1 (IC50). The procedure, abridged: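 FP competition with DCN1 in 100 mM phosphate pH 6.5, 0.02% Tween-20, 2% DMSO, probe 5 nM final. Equilibrated 30 min at room temperature with shaking. DCN1 was His6-tagged (uncleaved), expressed in E. coli Rosetta2 and purified by Ni-NTA and gel filtration.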
Sequence of DCN1 (Q96GG9 58-259): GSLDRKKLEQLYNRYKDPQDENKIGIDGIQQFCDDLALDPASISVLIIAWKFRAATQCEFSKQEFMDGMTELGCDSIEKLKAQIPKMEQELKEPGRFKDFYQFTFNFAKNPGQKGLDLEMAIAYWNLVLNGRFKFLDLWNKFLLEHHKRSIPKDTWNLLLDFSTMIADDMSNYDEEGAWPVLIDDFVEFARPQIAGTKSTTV
The term IC50 denotes the concentration that inhibits the measured activity by half. Turning to `CC[C@H](C)[C@@H](CN)NC(=O)[C@H](Cc1nc2ccc(C(C)C)cc2s1)NC=O` [Example 48, (S)—N-((2S,3S)-1-amino-3-methylpentan-2-yl)-2-formamido-3-(6-isopropylbenzo[d]thiazol-2-yl)propanamide], the IC50 is over 5 µM. Still for that read-out and setting: with `CCC(=O)N[C@H](CN)Cc1nc2ccc(C(C)C)cc2s1` [Example 109] the figure was over 10 µM; with `NCCNC(=O)[C@H](Cc1nc2ccc(Cl)cc2s1)NC(=O)CCOCc1ccccc1` [Example 238], over 10 µM. On the same count and under the same terms, with `CCC(=O)N[C@@H](Cc1ccc2ccccc2c1)C(=O)N[C@H](C(=O)N[C@@H](CCCCN)C(=O)N[C@H]1CNCc2ccccc21)C1CCCC1` [Example 159] the figure was over 3 µM; with `CCC(=O)N[C@@H](Cc1cccc(C)n1)C(=O)N[C@H](C(=O)N[C@@H](CCCCN)C(=O)NC(c1ccccc1)c1ccccc1)[C@@H](C)CC` [Example 134], over 10 µM.

Still in this test, the particulars now being: read-out: Binding affinity to DCN1 (IC50 (nM)).
Take `CCC(=O)N[C@@H](Cc1nc(C)c(-c2ccc(F)cc2)s1)C(=O)N[C@H](CN)Cc1ccccc1` [Example 100]: the IC50 is 2.22 µM. On the same count and under the same terms, with `CCC(=O)N[C@@H](Cc1nc2ccc(C(C)C)cc2s1)C(=O)N[C@H](CNC(=O)CCN1CCOCC1)Cc1ccccc1` [Example 93] the figure was 0.0899 µM; with `CCCC(=O)N[C@@H](Cc1nc2ccc(C(C)C)cc2s1)C(=O)N[C@H](C(=O)N[C@@H](CCCCN)C(=O)N[C@@H](CC(C)C)C(N)=O)[C@@H](C)CC` [Example 276] (Butyryl-[Ala(6-iPr-benzothiazol-2-yl)]IKL-NH2), 0.109 µM. The same measure, in the same setting: with `CCC(=O)N[C@@H](Cc1nc2ccc(Cl)cc2s1)C(=O)N[C@H](C(=O)N[C@@H](CCCCN)C(=O)N[C@@H]1CCOc2ccccc21)C1CCCC1` [Example 33] the figure was 0.103 µM; with `CCC(=O)N[C@@H](Cc1nc2ccc(Cl)cc2s1)C(=O)N[C@H](C(=O)N[C@@H](CC1CCNCC1)C(=O)N[C@@H]1CCOc2ccccc21)C1CCOCC1` [Example 41], 0.222 µM; with `CCC(=O)N[C@@H](Cc1nc(C)c(C(C)C)s1)C(=O)N[C@H](C(=O)N[C@@H](CCCCN)C(=O)N[C@@H]1CCOc2ccccc21)C1CCOCC1` [Example 187], 0.886 µM. Still for that read-out and setting: for `CCC(=O)N[C@@H](Cc1nc2ccc(Cl)cc2s1)C(=O)N[C@H](C(=O)N[C@@H](CCCCN)C(=O)NC(c1ccccc1)c1ccccc1)C1CCCC1` [Example 30] the value was 0.193 µM; for `CCC(=O)N[C@@H](Cc1nc2ccc(Cl)cc2s1)C(=O)N[C@@H](C[C@H]1CC[C@H](CNC(=O)COCCOCCOCCNC(=O)CCCC[C@@H]2SC[C@@H]3NC(=O)N[C@@H]32)CC1)C(=O)N[C@@H](CCCCN(C)C)C(=O)N[C@@H]1CCOc2ccccc21` [DI-427biotin], 0.189 µM.

For the molecule `CCC(=O)N[C@@H](Cc1nc2ccc(Cl)cc2o1)C(=O)N[C@H](C(=O)N[C@@H](CCCCN)C(=O)NC(c1ccccc1)c1ccccc1)[C@@H](C)CC` [Example 156], the IC50 worked out at 0.194 µM. On the same count and under the same terms, for `CC[C@H](C)[C@H](NC(=O)[C@H](Cc1nc2ccc(C(C)C)cc2s1)NC(=O)C1CC1)C(=O)N[C@@H](CCCCN)C(=O)N[C@@H](CC(C)C)C(N)=O` [Example 274] (Cyclopropanecarbonyl-[Ala(6-iPr-benzothiazol-2-yl)]IKL-NH2) the value was 0.0825 µM. On the same count and under the same terms, with `CCC(=O)N[C@@H](Cc1nc2ccc(CC)cc2s1)C(=O)N[C@H](C(=O)N[C@@H](CCCCN)C(=O)NC(c1ccccc1)c1ccccc1)C1CCCC1` [Example 174] the figure was 0.0775 µM; with `CCC(=O)N[C@@H](Cc1nc2ccc(Cl)cc2s1)C(=O)N[C@H](C(=O)N[C@@H](CCCCN)C(=O)NC(c1ccccn1)c1ccccn1)C1CCOCC1` [244 & 245], 0.297 µM.

With `CCC(=O)N[C@@H](Cc1nc2ccc(C(C)C)cc2s1)C(=O)N[C@H](CNc1ccncn1)C1CCCCC1` [Example 78], the IC50 came to 0.189 µM. On the same count and under the same terms, with `CCC(=O)N[C@H](CNC(=O)C1(N)CCC1)Cc1nc2ccc(C(C)C)cc2s1` [Example 113] the figure was 4.11 µM.
